In patent EP2925336B1, “NATURAL COMPOUNDS FOR USE IN THE TREATMENT OF BETA-2 ADRENERGIC RECEPTOR RELATED DISEASES” (Harmonic Pharma, priority 2012, dated 2014):

Columns and labels:
TNF-α [1] = experiment: cigarette smoke-induced lung injury model, TNF-α in bronchoalveolar lavage fluid (ELISA); type: in vivo; conditions: mice exposed to cigarette smoke vs non-treated mice; HMR 30 mg/kg intratracheal instillation daily for 4 days; BAL fluid at day 5; p < 0.05
Protocol: Male C57B1/6 WT mice (n=36) weighting between 20 and 25 g and aged of 9 weeks were obtained from Janvier Labs (Saint Berthevin, France) and were housed in the animal facility of the laboratory, with free access to water and food, for at least 1 week before the beginning of the experimentation.
The mice were randomly divided into six groups (n = 6/group). Mice were submitted to intratracheal instillation with 50 µl lignan of the invention (HMR with a purity of 95%, 30 mg/kg body wt dissolved in PBS containing 5%DMSO) or with PBS with 5% DMSO daily: After 3 hours mice were exposed to ambient air (AA) or to cigarette smoke (CS; 18 cigarettes per hour) for 3 hours.
This procedure was repeated 4 days. Mice were anesthetized with 250 µl of a solution containing xylazine 10% and ketamine 10% and were sacrificed at day 5. The BAL fluid was collected for analyses.
Lungs were washed twice with 1ml of PBS then centrifuged at 10,000 rpm at 4°C for 10 min, and the resulting supernatant of the BAL was aliquoted as 210 µl samples and used for TNF-α cytokine protein quantification using an ELISA kit (mouse TNFalpha DuoSet; R&D Systems Europe, Ltd., France).

TNF-α [2] = experiment: LPS lung injury model, TNF-α in bronchoalveolar lavage fluid (ELISA); type: in vivo, mice; conditions: LPS group vs control group; HMR 30 mg/kg intratracheal instillation 15 min before LPS; BAL fluid after 24 hours; p < 0.05
Protocol: (§1) Male C57B1/6 WT mice (n=35) weighing between 20 and 25 g and aged of 8 weeks were obtained from Janvier Labs (Saint Berthevin, France) and were housed in the animal facility of the laboratory, with free access to water and food, for at least 1 week before the beginning of the experimentation.
(§2) The mice were randomly divided into six groups (n = 5-6/group). At t=0, mice were submitted to intratracheal instillation with lignan of the invention (HMR with a purity of 95%, 30 mg/kg body wt dissolved in PBS containing 1% DMSO) or with PBS with 1% DMSO. At t=15 min, mice were submitted to instillation either with 30 µl of elastase (1UI diluted in PBS) or 30 µl of LPS (10 µg/ml diluted in PBS) or 30 µl of PBS containing 1% DMSO. Mice were anesthetized with 150 µl of a solution containing xylazine 10% and ketamine 10% and sacrificed after 24 hours, and the bronchoalveolar lavage (BAL) fluid was collected for subsequent analyses.
(§3) Lungs were washed twice with 1ml of PBS then centrifuged at 10,000 rpm at 4°C for 10 min, and the resulting supernatant of the BAL was aliquoted as 210 µl samples and used for TNF-α cytokine protein quantification using an ELISA kit (mouse TNF-alpha DuoSet; R&D Systems Europe, Ltd., France).

[3] = target: human β2-adrenergic receptor (Homo sapiens, UniProt P07550); experiment: agonist effect on the human β2-adrenergic receptor, cellular cAMP accumulation assay (HTRF); type: cell-based; conditions: recombinant CHO cells; for EC50: 30 minutes at room temperature, read-out: ECso; for β2 adrenergic receptor agonist activity: summary in words
Source text: We then have tested the in vitro activity of (-)-hydroxymatairesinol (two epimers; 7S,8R,8'R and 7R,8R,8'R), (-)(7S,8R,8'R)-hydroxymatairesinol, (+)-lariciresinol, (-)-secoisolariciresinol, knot-wood extracts of Picea abies and Abies alba against β2-adrenergic receptor, in a cellular based assay, according to the Table 1 below (Baker J.G. (2005), Brit. J. Pharmacol., 144: 317). Table 1: Test of the agonist effect of compounds on the human β2-adrenergic receptor
Mammalian recombinant cells (CHO cells) stably expressing human β2-adrenergic receptor were suspended in HBSS buffer (Invitrogen) complemented with 20 mM HEPES (pH 7.4) and 500 µM IBMX, then distributed in microplates at a density of 10^4 cells/well and incubated for 30 min at room temperature in the presence of HBSS (basal control), the test compound or the reference agonist. For stimulated control measurement, separate assay wells contained 100 nM isoproterenol. Following incubation, the cells were lysed and the fluorescence acceptor (D2-labeled cAMP) and fluorescence donor (anti-cAMP antibody labeled with europium cryptate) were added. After 60 min at room temperature, the fluorescence transfer was measured at λex=337 nm and λem=620 and 665 nm using a microplate reader (Rubystar, BMG). The cAMP concentration was determined by dividing the signal measured at 665 nm by that measured at 620 nm (ratio). Results are expressed as a percent of the control response to 100 nM isoproterenol. The standard reference agonist is isoproterenol, which was tested in each experiment at several concentrations to generate a concentration-response curve from which its EC50 value was calculated.
The knot-wood extract for use of the invention as well as the lignans for use of the invention were tested at a concentration of 10^-5 M. Results are presented in Figure 4, and are expressed as a percentage of control agonist response, wherein 100% corresponds to the agonist response measured when cells are treated with 0.1 µM isoproterenol.
Then, we measured the corresponding EC50. EC50 represents the half maximal effective concentration, and refers to the concentration of a compound which induces a response halfway between the baseline and maximum.

TNF-α [4] = experiment: elastase lung injury model, TNF-α in bronchoalveolar lavage fluid (ELISA); type: in vivo, mice; conditions: elastase group vs control group; HMR 30 mg/kg intratracheal instillation 15 min before elastase; BAL fluid after 24 hours; p < 0.05
Protocol: as §1, §2, §3

human β2-adrenergic receptor, sequence (P07550 whole entry): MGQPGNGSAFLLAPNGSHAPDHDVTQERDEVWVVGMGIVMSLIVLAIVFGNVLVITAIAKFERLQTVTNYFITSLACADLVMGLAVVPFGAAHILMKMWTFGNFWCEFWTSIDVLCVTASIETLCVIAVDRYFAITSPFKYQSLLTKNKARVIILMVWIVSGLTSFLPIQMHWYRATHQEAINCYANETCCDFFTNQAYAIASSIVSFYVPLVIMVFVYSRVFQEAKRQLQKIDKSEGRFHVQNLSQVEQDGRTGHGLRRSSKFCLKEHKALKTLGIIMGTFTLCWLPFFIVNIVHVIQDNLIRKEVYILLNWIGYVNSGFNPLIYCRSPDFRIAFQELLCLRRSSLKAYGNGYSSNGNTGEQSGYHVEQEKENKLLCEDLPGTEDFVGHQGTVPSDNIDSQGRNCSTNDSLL

SMILES	level of TNF-α (TNF-α [1])	level of TNF-α (TNF-α [2])	EC50 [3]	β2 adrenergic receptor agonist activity [3]	level of TNF-α (TNF-α [4])
COc1cc(C[C@H]2C(=O)OC[C@@H]2C(O)c2ccc(O)c(OC)c2)ccc1O (mixture of isomers) [HMR, (-) hydroxymatairesinol (2 epimers: 7S,8R,8'R and 7R,8R,8'R)]	significant reduced level	significantly reduced	0.35 µM	strong β2 adrenergic receptor agonist activity	significantly reduced
COc1cc(CC2C(=O)OCC2C(O)c2ccc(O)c(OC)c2)ccc1O (single isomer, unassigned; (-)) [HMR2]	–	–	1.5 µM	strong β2 adrenergic receptor agonist activity	–
COc1cc(C[C@H]2CO[C@H](c3ccc(O)c(OC)c3)[C@H]2CO)ccc1O [Lari, (+)-lariciresinol]	–	–	1.7 µM	strong β2 adrenergic receptor agonist activity	–
COc1cc(C[C@@H](CO)[C@H](CO)Cc2ccc(O)c(OC)c2)ccc1O [Seco, (-)-Secoisolariciresinol]	–	–	2.5 µM	strong β2 adrenergic receptor agonist activity	–
